Test results taken from PubChem BioAssay AID248 (DTP/NCI, 2004).
Several values for one entry are separate records, joined by “and”; a condition that tells them apart may be missing. Identical values can stand only once. Inconclusive results and toxic doses are left out. Rule as the data show it: active = T/C of 150% or more; inactive = T/C below 125%.

Test system: L1210 leukemia ip in BDF1 mice, survival T/C
Assay: NCI In Vivo Anticancer Drug Screen. Data for tumor model L1210 Leukemia (intraperitoneal) in B6D2F1 (BDF1) mice
Conditions: endpoint: mean survival time, higher = longer survival
Summary of the method: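 Ratio derived from survival: compound-dosed mice over vehicle-dosed mice, all bearing a transplantable tumor.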

[1] = dose: 100.0 mg/kg/injection, schedule: Q01DX001 (ip), vehicle: Klucel (hydroxypropylcellulose) (HPC)
[2] = dose: 100.0 mg/kg/injection, schedule: Q01DX009 (ip), vehicle: Klucel (hydroxypropylcellulose) (HPC)
[3] = dose: 100.0 mg/kg/injection, schedule: Q04DX003 (ip), vehicle: Klucel (hydroxypropylcellulose) (HPC)
[4] = dose: 200.0 mg/kg/injection, schedule: Q01DX009 (ip), vehicle: Klucel (hydroxypropylcellulose) (HPC)
[5] = dose: 200.0 mg/kg/injection, schedule: Q04DX003 (ip), vehicle: Klucel (hydroxypropylcellulose) (HPC)
[6] = dose: 400.0 mg/kg/injection, schedule: Q04DX003 (ip), vehicle: Klucel (hydroxypropylcellulose) (HPC)
[7] = dose: 200.0 mg/kg/injection, schedule: Q01DX001 (ip), vehicle: Klucel (hydroxypropylcellulose) (HPC)
[8] = dose: 75.0 mg/kg/injection, schedule: Q01DX001 (ip), vehicle: saline
[9] = dose: 100.0 mg/kg/injection, schedule: Q01DX001 (ip), vehicle: saline
[10] = dose: 200.0 mg/kg/injection, schedule: Q01DX001 (ip), vehicle: saline
[11] = dose: 50.0 mg/kg/injection, schedule: Q01DX001 (ip), vehicle: saline
[12] = dose: 200.0 mg/kg/injection, schedule: Q04DX003 (ip), vehicle: saline

Measured: T/C

COc1cccc(C(=O)O)c1N
inactive: dose: 25.0 mg/kg/injection, schedule: Q01DX001 (ip), vehicle: Klucel (hydroxypropylcellulose) (HPC) 102 % of control | dose: 50.0 mg/kg/injection, schedule: Q01DX001 (ip), vehicle: Klucel (hydroxypropylcellulose) (HPC) 98 % of control | [1] 91 % of control

O=C1OCC/C1=C\NCCCCCCCCN/C=C1\CCOC1=O
inactive: dose: 100.0 mg/kg/injection, schedule: Q04DX002 (ip), vehicle: Klucel (hydroxypropylcellulose) (HPC) 97 % of control | dose: 200.0 mg/kg/injection, schedule: Q04DX002 (ip), vehicle: Klucel (hydroxypropylcellulose) (HPC) 108 % of control | dose: 400.0 mg/kg/injection, schedule: Q04DX002 (ip), vehicle: Klucel (hydroxypropylcellulose) (HPC) 97 % of control

CCCCCCCCCCCCCCCCOc1ccc(S(=O)(=O)Nc2cc(C(=O)OC)cc(C(=O)OC)c2)cc1[N+](=O)[O-]
inactive: [2] 98 % of control | [3] 93 % of control | [4] 97 % of control | [5] 95 % of control | dose: 400.0 mg/kg/injection, schedule: Q01DX009 (ip), vehicle: Klucel (hydroxypropylcellulose) (HPC) 92 % of control | [6] 91 % of control

CCCCCCCCCCCCCCCCS(=O)(=O)N/N=C/c1ccccc1O
inactive: dose: 100.0 mg/kg/injection, schedule: Q01DX001 (ip), vehicle: carboxymethylcellulose (CMC) 95 % of control | dose: 200.0 mg/kg/injection, schedule: Q01DX001 (ip), vehicle: carboxymethylcellulose (CMC) 98 % of control

COc1ccc(CCN2C(=O)c3cccc4c(Br)ccc(c34)C2=O)cc1
inactive: dose: 100.0 mg/kg/injection, schedule: Q04DX002 (ip), vehicle: saline 93 % of control | dose: 200.0 mg/kg/injection, schedule: Q04DX002 (ip), vehicle: saline 93 % of control | dose: 400.0 mg/kg/injection, schedule: Q04DX002 (ip), vehicle: saline 97 % of control

CN(C)c1ccc(/C=C(/NC(=O)c2ccccc2)C(N)=O)cc1
inactive: [3] 94 % of control | [5] 96 % of control | [6] 94 % of control

CC(=O)/C=C/c1ccc([N+](=O)[O-])o1
inactive: [1] 116 % of control | [7] 121 % of control

C/C=C(\CC)C1(C(C)C)C(=O)NC(=O)NC1=O
inactive: [8] 91 % of control

OC(COc1cccc2ccccc12)CN1CC=C(c2ccccc2)CC1 (stereo not given)
inactive: dose: 12.5 mg/kg/injection, schedule: Q01DX009 (ip), vehicle: Klucel (hydroxypropylcellulose) (HPC) 103 % of control | dose: 25.0 mg/kg/injection, schedule: Q01DX009 (ip), vehicle: Klucel (hydroxypropylcellulose) (HPC) 100 % of control | dose: 50.0 mg/kg/injection, schedule: Q01DX009 (ip), vehicle: Klucel (hydroxypropylcellulose) (HPC) 101 % of control | [2] 100 % of control

CCOC(=O)c1[nH]c(C)c(C)c1-c1ccccc1
inactive: [3] 109 % of control | [5] 94 % of control

Cc1cc(S(=O)(=O)F)ccc1NC(=O)NCc1ccc([N+](=O)[O-])cc1Cl
inactive: [3] 112 % of control | [5] 101 % of control

CC1CC(C)CC(NC(=O)NCCCl)C1 (stereo not given)
inactive: dose: 20.0 mg/kg/injection, schedule: Q01DX009 (ip), vehicle: Klucel (hydroxypropylcellulose) (HPC) 106 % of control | dose: 40.0 mg/kg/injection, schedule: Q01DX009 (ip), vehicle: Klucel (hydroxypropylcellulose) (HPC) 95 % of control | dose: 80.0 mg/kg/injection, schedule: Q01DX009 (ip), vehicle: Klucel (hydroxypropylcellulose) (HPC) 93 % of control | [3] 103 % of control | [4] 87 % of control | [5] 94 % of control | [6] 92 % of control

Cc1ccc(NC(=O)OCCCl)cc1
inactive: [9] 117 % of control | [10] 112 % of control

CSc1nc(Cl)c(-c2ccccc2)c(N2CC2)n1
inactive: dose: 25.0 mg/kg/injection, schedule: Q01DX Z (ip), vehicle: methylcellulose (MC) 98 % of control | dose: 50.0 mg/kg/injection, schedule: Q01DX Z (ip), vehicle: methylcellulose (MC) 90 % of control

C[C@]12CC[C@H]3[C@@H](CC[C@]4(O)C[C@@H](O)CC[C@]34CO)[C@@]1(O)CC[C@@H]2C1=CC(=O)OC1
inactive: [11] 106 % of control | [9] 100 % of control | [10] 100 % of control

CS(=O)(=O)Nc1ccc(NS(C)(=O)=O)c(SCc2ccccc2)c1
inactive: [1] 95 % of control | [3] 96 % of control | [7] 98 % of control | [5] 89 % of control | dose: 400.0 mg/kg/injection, schedule: Q01DX001 (ip), vehicle: Klucel (hydroxypropylcellulose) (HPC) 95 % of control | [6] 102 % of control

CCc1ccccc1N1CCN(C(=O)c2cc(OC)c(OC)c(OC)c2)CC1
inactive: dose: 25.0 mg/kg/injection, schedule: Q01DX009 (ip), vehicle: saline 100 % of control | dose: 50.0 mg/kg/injection, schedule: Q01DX009 (ip), vehicle: saline 102 % of control and 105 % of control | dose: 50.0 mg/kg/injection, schedule: Q01DX Z (ip), vehicle: carboxymethylcellulose (CMC) 104 % of control | dose: 50.0 mg/kg/injection, schedule: Q04DX003 (ip), vehicle: acetone 98 % of control | dose: 50.0 mg/kg/injection, schedule: Q04DX003 (ip), vehicle: saline 94 % of control | dose: 74.0 mg/kg/injection, schedule: Q01DX009 (ip), vehicle: saline 100 % of control | dose: 74.0 mg/kg/injection, schedule: Q01DX Z (ip), vehicle: carboxymethylcellulose (CMC) 107 % of control | dose: 74.0 mg/kg/injection, schedule: Q04DX003 (ip), vehicle: saline 92 % of control | [9] 100 % of control | dose: 100.0 mg/kg/injection, schedule: Q01DX009 (ip), vehicle: saline 114 % of control | dose: 100.0 mg/kg/injection, schedule: Q04DX003 (ip), vehicle: acetone 97 % of control | dose: 112.0 mg/kg/injection, schedule: Q01DX009 (ip), vehicle: saline 97 % of control | dose: 112.0 mg/kg/injection, schedule: Q01DX Z (ip), vehicle: carboxymethylcellulose (CMC) 102 % of control | dose: 112.0 mg/kg/injection, schedule: Q04DX003 (ip), vehicle: saline 99 % of control | dose: 168.0 mg/kg/injection, schedule: Q01DX009 (ip), vehicle: saline 108 % of control | dose: 168.0 mg/kg/injection, schedule: Q04DX003 (ip), vehicle: saline 97 % of control and 99 % of control | [10] 103 % of control | dose: 200.0 mg/kg/injection, schedule: Q01DX009 (ip), vehicle: saline 100 % of control | [12] 103 % of control | dose: 225.0 mg/kg/injection, schedule: Q01DX009 (ip), vehicle: saline 97 % of control | dose: 250.0 mg/kg/injection, schedule: Q04DX003 (ip), vehicle: saline 103 % of control

COC1OC(C)CC(O)C1O (stereo not given)
inactive: dose: 100.0 mg/kg/injection, schedule: Q04DX003 (ip), vehicle: saline 97 % of control | [12] 103 % of control | dose: 400.0 mg/kg/injection, schedule: Q04DX003 (ip), vehicle: saline 109 % of control

CCCCCc1ccccc1
inactive: dose: 200.0 mg/kg/injection, schedule: Q01DX Z (ip), vehicle: carboxymethylcellulose (CMC) 103 % of control | dose: 400.0 mg/kg/injection, schedule: Q01DX Z (ip), vehicle: carboxymethylcellulose (CMC) 108 % of control | dose: 800.0 mg/kg/injection, schedule: Q01DX Z (ip), vehicle: carboxymethylcellulose (CMC) 91 % of control

Cc1ccc(S(=O)(=O)NNC(=O)c2ccc(-c3ccc[nH]3)[nH]2)cc1
inactive: [8] 93 % of control | dose: 150.0 mg/kg/injection, schedule: Q01DX001 (ip), vehicle: saline 92 % of control | dose: 300.0 mg/kg/injection, schedule: Q01DX001 (ip), vehicle: saline 98 % of control

CCCOC(=O)C(CC(C)(C)C)CC(C)(C)C
inactive: [9] 104 % of control | [10] 104 % of control | dose: 400.0 mg/kg/injection, schedule: Q01DX001 (ip), vehicle: saline 101 % of control

CS/C(N)=N/N
inactive: dose: 12.5 mg/kg/injection, schedule: Q04DX003 (ip), vehicle: saline 100 % of control | dose: 25.0 mg/kg/injection, schedule: Q01DX001 (ip), vehicle: saline 90 % of control | dose: 25.0 mg/kg/injection, schedule: Q04DX003 (ip), vehicle: saline 106 % of control | [11] 101 % of control

COc1ncnc2c1nnn2C1OC(CO)C(O)C1O (stereo not given)
inactive: dose: 25.0 mg/kg/injection, schedule: Q01DX001 (ip), vehicle: saline with Tween-80 102 % of control | dose: 100.0 mg/kg/injection, schedule: Q01DX001 (ip), vehicle: saline with Tween-80 104 % of control
